Laboratory results reported in publication PMC10799935, “Discovery of a peripheral 5HT2A antagonist as a clinical candidate for metabolic dysfunction-associated steatohepatitis” (Nature Communications, 2024).
“Also recorded” adds a separate entry of the source.

Tests used:
[1] = target: T1, 5HT2A (Homo sapiens, UniProt P28223); experiment: Human 5HT2A inhibition assay (FLIPR calcium 6, 5HT stimulus, stably transfected HEK293 cells); assay type: cell-based; parameters: expressed in transfected cells; host or cells: HEK293; conditions: for inhibition at 1 µM: HEK293, 1 μM, read-out: % Inhibition at 1 μM (SD)
Protocol: The derivatives were evaluated at a concentration of 1 μM for their antagonist activity on the 5HT2A receptor (Tables 1–3)[33],[34]. […] The cells were stained with 100 μL of cytosolic calcium dye using the FLIPR calcium 6 assay solution (Molecular devices, #R8190) supplemented with 2.5 mM probenecid (Sigma; P8761) and incubated for 1 h at 37 °C. After 1 h, the designated amount of the compound was treated in each well and incubated for another 1 h at 37 °C. […] Experimental conditions for the 5HT subtypes can be found in the Supporting Information (Supplementary Table 1).

[2] = target: T1, 5HT2A; experiment: as above; assay type: cell-based; parameters: expressed in transfected cells; host or cells: HEK293; conditions: HEK293, 10 μM; read-out: % Inhibition at 10 μM (SD)
[3] = Liver microsomal stability, rat; assay type: in vitro ADME
Excerpt: (§1) Based on the structure and activity of the two series above, we replaced the alcohol with –CH2.

[4] = Liver microsomal stability, human; assay type: in vitro ADME
Excerpt: as §1

[5] = Liver microsomal stability (species not stated); assay type: in vitro ADME
[6] = tested on: STZ+HFD mice; experiment: STZ+HFD mice (modified STAM) NASH and liver fibrosis model; assay type: in vivo, mouse; conditions: 11c 5 or 10 mg/kg, OCA 10 mg/kg
Protocol: Mice were intraperitoneally injected with low-dose streptozotocin (40 mg/kg; 5 times) in 7-week-old mice. After injection with STZ, mice were fed an HFD for 16 weeks to induce NASH and liver fibrosis. After 16 weeks of an HFD, mice were fed a standard chow diet to mimic the NASH patient under […]
nine weeks by oral gavage (Reviewer-only data 4). […]
inflammation, hepatocyte ballooning, and total NAFLD activity score by the NASH CRN histological scoring system (Reviewer-only data 4B, C). […]
hepatic fibrosis stage similar to STZ+HFD mice treated with OCA (Reveiwer-only data 4D, E). STZ+HFD mice […]
function (Reviwer-only data 4F). […]
group (Reviewer-only data 4G). Furthermore, the expression of genes related to lipogenesis and fibrosis was reduced in the compound 11c-treated group in a dose-dependent manner (Reviewer-only data 4H, I). These […]
Reviewer-only Data 4. Compound 11c treatment with dietary modification ameliorates NASH and liver fibrosis in a dose-dependent manner. (A) Experimental scheme for in vivo efficacy of compound 11c in […]
(STZ+HFD mice. (B-I) STZ+HFD mice fed HFD for 16 weeks were switched to SCD for 9 weeks and were treated with vehicle, compound 11c, or OCA by daily oral gavage. (B) Representative liver histology by H&E staining […]
mg/kg. Scale bars, 100µm. […]
mice; n = 9 per group. (D) Representative liver histology by Masson’s trichrome staining from vehicle, […]
Scale bars, 100µm. (E) Fibrosis stage
(F) Serum AST and ALT levels; n = 9 per […]
group. (G) Serum TG levels and hepatic TG levels; n = 9 per group. (H) Relative mRNA expression of lipogenesis-related genes as assessed by qRT-PCR in the liver; n = 9 per group. (I) Relative mRNA expression of fibrosis-related genes as assessed by qRT-PCR in the liver; n = 9 per group. Data are expressed as the means ±SEM.
[…], **P<0.01, one-way ANOVA with post hoc Tukey’s test (C, E, F, G, H, I). […]
Representative liver histology by Masson’s trichrome staining and Sirius Red staining. Scale bars, 100µm. (E) […]
one-way ANOVA with post hoc Tukey’s test (C, E).
Comment 2: In "Methods", the author claims to use HEK293 cells (a type of cell derived from kidney embryos) for cell research, however, the data in Table 5 are the results of hepatocyte experiments. What happened? Response: We appreciate the Reviewer’s comment. HEK293 cells were used for inhibition assay (cell research), shown in Table 1-3 of the main manuscript, while, hepatic cell lines were used for chemical profiling and for “Hepatocyte stability” test, shown in Table 5 of the main manuscript. The “Selectivity” of Compound 11c for different 5HT subtypes is elucidated in response to Comment 6.
We have modified the Methods section to provide clarity.

T1 sequence (P28223 whole entry): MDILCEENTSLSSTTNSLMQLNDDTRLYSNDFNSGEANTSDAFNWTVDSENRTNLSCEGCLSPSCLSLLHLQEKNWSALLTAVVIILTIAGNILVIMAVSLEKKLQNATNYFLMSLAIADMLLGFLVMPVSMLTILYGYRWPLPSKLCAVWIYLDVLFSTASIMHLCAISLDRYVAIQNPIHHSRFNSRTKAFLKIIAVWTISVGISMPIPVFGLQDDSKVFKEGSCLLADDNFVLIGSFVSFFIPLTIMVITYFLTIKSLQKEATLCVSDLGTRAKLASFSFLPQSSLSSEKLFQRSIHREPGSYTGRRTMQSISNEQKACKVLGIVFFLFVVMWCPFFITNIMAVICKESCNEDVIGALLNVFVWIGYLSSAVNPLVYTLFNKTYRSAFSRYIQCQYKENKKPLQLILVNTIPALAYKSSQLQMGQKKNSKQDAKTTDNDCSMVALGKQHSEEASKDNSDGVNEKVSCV

IC50 [1]	metabolic stability in the liver microsome (% after 30 min incubation) [3]	metabolic stability in the liver microsome (% after 30 min incubation) [4]	Compound	inhibition at 1 µM [1]	inhibition at 10 µM [2]	liver microsomal stability (in words) [5]	other results
47 nM	0.50%	5.33%	O=c1[nH]c2ccccc2c(=O)n1CCN1CCC(=C2c3ccc(Cl)cc3CCc3cccnc32)CC1 [Compound 11d]	–	–	metabolically unstable; also recorded: low liver microsomal stability	IC50 (nM) [1]: lower in vitro activity than 11c; % Inhibition at 1 μM (SD) ([1]; 1 μM): 102 ± 0.03%
–	–	–	CC(=O)N1CCC(=C2c3ccc(Cl)cc3CCc3cccnc32)CC1 [Compound 3]	–	-1%	–	–
14 nM	11.7%	17.3%	Cc1nc2n(c(=O)c1CCN1CCC(=C3c4ccc(Cl)cc4CCc4cccnc43)CC1)CCCC2 [Compound 11b]	92.63 ± 0.6%	–	metabolically unstable; also recorded: rapidly metabolized in the liver microsome	–
–	–	–	CC(C)NC(=S)N1CCC(=C2c3ccc(Cl)cc3CCc3cccnc32)CC1 [Compound 5]	–	8%	–	–
–	–	–	CC[C@H]1[C@@H](O)[C@@H]2[C@H](CC[C@]3(C)[C@@H]([C@H](C)CCC(=O)O)CC[C@@H]23)[C@@]2(C)CC[C@@H](O)C[C@@H]12 [OCA, Obeticholic acid, reference compound]	–	–	–	hepatic fibrosis stage [6]: improvement

Compound	IC50 [1]	metabolic stability in the liver microsome (% after 30 min incubation) [3]	metabolic stability in the liver microsome (% after 30 min incubation) [4]	inhibition at 1 µM [1]	inhibition at 10 µM [2]	liver microsomal stability (in words) [5]	other results
CN1CCC(=C2c3ccc(Cl)cc3CCc3cccnc32)CC1 [Compound 6]	119 nM	–	–	90 ± 0.62%	95 ± 0.31%	–	–
